# Values quoted from earlier work in US20080254117A1, “PROCESS FOR PREPARING PRAMIPEXOLE DIHYDROCHLORIDE TABLETS” (priority 2007, published 2008).
# Counter-ions that a name gives are not always drawn.
# How the values were obtained:
# [1] = not given; remark: listed apart in the source
solubility in buffer media (between pH 2 and pH 7.4),Water solubility (water),light sensitivity in solution ([1]; in solution),stability in the solid state ([1]; solid state),SMILES
above 10 mg/mL,more than 20 mg/mL,–,–,"CCCN[C@H]1CCc2nc(N)sc2C1 [Pramipexole dihydrochloride monohydrate, pramipexole dihydrochloride monohydrate]"
–,–,light sensitive,very stable in the solid state,"CCCN[C@H]1CCc2nc(N)sc2C1 [Pramipexole, (S)-2-amino-4,5,6,7-tetrahydro-6-(propylamino)benzothiazole]"
